Experimental data: patent US8026245B2, “HIV replication inhibiting purine derivatives” (Janssen Pharmaceutica N.V., priority 2003, dated 2011)

What was measured:
[1] = tested on: HIV-1; settings: Method A; for pEC50 (−logEC50): MT-4 cells, HIV-infected, MTT, 50% protection; for pSI (pCC50-pEC50): selectivity index, ratio of CC50 to EC50
Description: An […] T4-cell line, MT-4, which was previously shown (Koyanagi et al., Int. J. Cancer, 36, 445-451, 1985) to be highly susceptible to and permissive for HIV infection, served as the target cell line. Inhibition of the HIV-induced cytopathic effect was used as the end point. The viability of both HIV- and mock-infected cells was assessed spectrophotometrically via the in situ reduction of 3-(4,5-dimethylthiazol-2-yl)-2,5-diphenyltetrazolium bromide (MTT). The 50% cytotoxic concentration (CC50 in M) was defined as the concentration of compound that reduced the absorbance of the mock-infected control sample by 50%. The percent protection achieved by the compound in HIV-infected cells was calculated by the following formula:
[formula] whereby (ODT)HIV is the optical density measured with a given concentration of the test compound in HIV-infected cells; (ODC)HIV is the optical density measured for the control untreated HIV-infected cells; (ODC)MOCK is the optical density measured for the control untreated mock-infected cells; all optical density values were determined at 540 nm. The dose achieving 50% protection according to the above formula was defined as the 50% effective concentration (EC50 in M). The ratio of CC50 to EC50 was defined as the selectivity index (SI). Method B

[2] = tested on: mock-infected MT-4 cells; assay type: cell-based
Description: An HIV-1 transformed T4-cell line, MT-4, which was previously shown (Koyanagi et al., Int. J. Cancer, 36, 445-451, 1985) to be highly susceptible to and permissive for HIV infection, served as the target cell line. Inhibition of the HIV-induced cytopathic effect was used as the end point. The viability of both HIV- and mock-infected cells was assessed spectrophotometrically via the in situ reduction of 3-(4,5-dimethylthiazol-2-yl)-2,5-diphenyltetrazolium bromide (MTT). The 50% cytotoxic concentration (CC50 in M) was defined as the concentration of compound that reduced the absorbance of the mock-infected control sample by 50%. The percent protection achieved by the compound in HIV-infected cells was calculated by the following formula:

| Compound | pEC50 (−logEC50) [1] [M] | pSI (pCC50-pEC50) [1] | pCC50 (−logCC50) [2] |
| --- | --- | --- | --- |
| Cc1cc(C)c(Nc2nc(Nc3ccc(C#N)cc3)nc3[nH]cnc23)c(C)c1 [Compound 24] | 8.4 | −4.1 | 4.3 |
| COc1cc(C)c(Nc2nc(Nc3ccc(C#N)cc3)nc3[nH]cnc23)c(C)c1 [Compound 25] | 8.5 | <−4 | <4.5 |
| Cc1cc(C#N)cc(C)c1Oc1nc(Nc2ccc(C#N)cc2)nc2[nH]cnc12 [Compound 28] | 9.0 | <−4.4 | <4.6 |
